Data: patent publication US8916567B2, “Certain crystalline hydrates, pharmaceutical compositions thereof and methods for preparation and use thereof” (Universal Technology Alliance, Inc., priority 2009, dated 2014)
Where two headings read alike, the source gives them in different places.

What was measured:
[1] = test system: E. feacalis; assay: Minimum inhibitory concentration (MIC) in vitro, agar dilution method; type: cell-based; conditions: hydrate
Procedure, shortened: (§1)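 MIC50, MIC90, MIC range and individual MICs derive from CLSI/NCCLS agar dilution testing of 2007-2008 clinical isolates from Sichuan and Beijing. Samples were prepared in DMSO with further dilution in sterile water; vancomycin and linezolid served as reference drugs.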

[2] = test system: E. feacium; assay: as above; type: cell-based
Procedure, shortened: as §1

[3] = test system: S. epidermidis MRSE; assay: as above; type: cell-based; conditions: hydrate
Procedure, shortened: as §1

[4] = test system: S. epidermidis MSSE; assay: as above; type: cell-based
Procedure, shortened: as §1

[5] = test system: Staphylococcus aureus MRSA; assay: as above; type: cell-based
Procedure, shortened: as §1

[6] = test system: Staphylococcus aureus MSSA; assay: as above; type: cell-based
Procedure, shortened: as §1

[7] = test system: Staphylococcus aureus; assay: Minimum inhibitory concentration (MIC) in vitro, agar dilution method, quality control strain; type: cell-based; conditions: strain S. AT C C25923 (Table 7 No. 1); hydrate
Procedure, shortened: as §1

[8] = Solubility in different solvents according to Chinese Pharmacopeia (2005 edition); type: physicochemical; conditions: for Result: at the given solute:solvent ratio
Protocol: The solubility of the (S)—[N-3-(3′-fluoro-4′-(4″-phenylpiperazinyl))phenyl-2-oxo-5-oxazolelidinyl]methylacetamide hydrates was tested with different solvents, and the test results are shown in Tables 15-19. The solubility was measured according to Chinese Pharmacopeia (2005 edition).

[9] = E. feacalis (5 strains), clinically isolated
[10] = E. feacium (5 strains), clinically isolated, hydrate
[11] = S. ep MRSE (10 strains), clinically isolated
[12] = S. ep MSSE (10 strains), clinically isolated, hydrate
[13] = S. MRSA (10 strains), clinically isolated, hydrate
[14] = S. MSSA (11 strains), clinically isolated, hydrate

Structure (SMILES): CC(=O)NC[C@H]1CN(c2ccc(N3CCN(c4ccccc4)CC3)c(F)c2)C(=O)O1 [½ hydrate, (S)—[N-3-(3′-fluoro-4′-(4″-phenylpiperazinyl))phenyl-2-oxo-5-oxazolidinyl]methyl acetamide 1/2 hydrate]
- MIC50 [1, 9]: 0.125 µg/mL
- MIC90 [1, 9]: 0.25 µg/mL
- MICrange [1, 9]: 0.06 to 0.25 µg/mL
- MIC ([1]; strain Efa 54 (Table 8 No. 20)): 0.06 µg/mL
- MIC ([1]; strain Efa 116 (Table 8 No. 16)): 0.25 µg/mL
- MIC ([1]; strain Efa 3006 (Table 8 No. 18)): 0.06 µg/mL
- MIC ([1]; strain Efa 33748 (Table 8 No. 17)): 0.25 µg/mL
- MIC50 [2, 10]: 0.5 µg/mL
- MIC90 [2, 10]: 1 µg/mL
- MICrange [2, 10]: 0.25 to 1 µg/mL
- MIC ([2]; strain Efm 98 (Table 8 No. 21), hydrate): 0.25 µg/mL
- MIC ([2]; strain Efm 171 (Table 8 No. 25), hydrate): 0.25 µg/mL
- MIC ([2]; strain Efm 197 (Table 8 No. 22)): 0.5 µg/mL
- MIC ([2]; strain Efm N3 (Table 8 No. 23), hydrate): 0.5 µg/mL
- MIC ([2]; strain Efm N4 (Table 8 No. 24), hydrate): 1 µg/mL
- MIC50 [3, 11]: 0.25 µg/mL
- MIC90 [3, 11]: 0.25 µg/mL
- MICrange [3, 11]: 0.25 µg/mL
- MIC ([3]; strain S. ep MRSE4 (Table 8 No. 9)): 0.25 µg/mL
- MIC ([3]; strain S. ep MRSE20 (Table 8 No. 6)): 0.25 µg/mL
- MIC ([3]; strain S. ep MRSE87 (Table 8 No. 13)): 0.25 µg/mL
- MIC ([3]; strain S. ep MRSE90 (Table 8 No. 10)): 0.25 µg/mL
- MIC ([3]; strain S. ep MRSE101 (Table 8 No. 7)): 0.25 µg/mL
- MIC ([3]; strain S. ep MRSE105 (Table 8 No. 11)): 0.25 µg/mL
- MIC ([3]; strain S. ep MRSE140 (Table 8 No. 14)): 0.25 µg/mL
- MIC ([3]; strain S. ep MRSE142 (Table 8 No. 12)): 0.25 µg/mL
- MIC ([3]; strain S. ep MRSE210 (Table 8 No. 15)): 0.25 µg/mL
- MIC ([3]; strain S. ep MRSE211 (Table 8 No. 8)): 0.25 µg/mL
- MIC90 [4, 12]: 0.25 µg/mL
- MICrange [4, 12]: 0.06 to 0.25 µg/mL
- MIC50 ([4]; Staphylococcus epidermidis, S. ep MSSE (10 strains), clinically isolated, read-out: MIC50): 0.25 µg/mL
- MIC ([4]; Staphylococcus epidermidis, strain S. ep MSSE113 (Table 7 No. 24), read-out: MIC): 0.25 µg/mL
- MIC ([4]; Staphylococcus epidermidis, strain S. ep MSSE118 (Table 8 No. 2), read-out: MIC): 0.25 µg/mL
- MIC ([4]; Staphylococcus epidermidis, strain S. ep MSSE140 (Table 8 No. 3), read-out: MIC): 0.25 µg/mL
- MIC ([4]; strain S. ep MSSE87 (Table 7 No. 23), hydrate): 0.06 µg/mL
- MIC ([4]; strain S. ep MSSE88 (Table 8 No. 5), hydrate): 0.25 µg/mL
- MIC ([4]; strain S. ep MSSE116 (Table 7 No. 25), hydrate): 0.25 µg/mL
- MIC ([4]; strain S. ep MSSE119 (Table 7 No. 27), hydrate): 0.25 µg/mL
- MIC ([4]; strain S. ep MSSE137 (Table 8 No. 4), hydrate): 0.25 µg/mL
- MIC ([4]; strain S. ep MSSE142 (Table 7 No. 26), hydrate): 0.125 µg/mL
- MIC ([4]; strain S. ep MSSE153 (Table 8 No. 1), hydrate): 0.25 µg/mL
- MIC50 [5, 13]: 0.25 µg/mL
- MIC90 [5, 13]: 0.25 µg/mL
- MICrange [5, 13]: 0.25 to 0.5 µg/mL
- MIC ([5]; Staphylococcus aureus, MRSA, strain S. MRSA 101 (Table 7 No. 14), read-out: MIC): 0.5 µg/mL
- MIC ([5]; Staphylococcus aureus, MRSA, strain S. MRSA 201 (Table 7 No. 13), read-out: MIC): 0.5 µg/mL
- MIC ([5]; Staphylococcus aureus, MRSA, strain S. MRSA B27 (Table 7 No. 21), read-out: MIC): 0.25 µg/mL
- MIC ([5]; strain S. MRSA 29 (Table 7 No. 15), hydrate): 0.25 µg/mL
- MIC ([5]; strain S. MRSA B105 (Table 7 No. 17), hydrate): 0.25 µg/mL
- MIC ([5]; strain S. MRSA B143 (Table 7 No. 19), hydrate): 0.25 µg/mL
- MIC ([5]; strain S. MRSA B151 (Table 7 No. 20), hydrate): 0.25 µg/mL
- MIC ([5]; strain S. MRSA B164 (Table 7 No. 16), hydrate): 0.25 µg/mL
- MIC ([5]; strain S. MRSA B199 (Table 7 No. 22), hydrate): 0.25 µg/mL
- MIC ([5]; strain S. MRSA B617 (Table 7 No. 18), hydrate): 0.25 µg/mL
- MIC50 [6, 14]: 0.25 µg/mL
- MIC90 [6, 14]: 0.25 µg/mL
- MICrange [6, 14]: 0.25 to 0.5 µg/mL
- MIC ([6]; Staphylococcus aureus, MSSA, strain S. MSSA 195 (Table 7 No. 6), read-out: MIC): 0.5 µg/mL
- MIC ([6]; Staphylococcus aureus, MSSA, strain S. MSSA 201 (Table 7 No. 11), read-out: MIC): 0.25 µg/mL
- MIC ([6]; Staphylococcus aureus, MSSA, strain S. MSSA 466 (Table 7 No. 8), read-out: MIC): 0.25 µg/mL
- MIC ([6]; Staphylococcus aureus, MSSA, strain S. MSSA 519 (Table 7 No. 9), read-out: MIC): 0.5 µg/mL
- MIC ([6]; strain S. MSSA 123 (Table 7 No. 3), hydrate): 0.25 µg/mL
- MIC ([6]; strain S. MSSA 187 (Table 7 No. 7), hydrate): 0.25 µg/mL
- MIC ([6]; strain S. MSSA 195 (Table 7 No. 12), hydrate): 0.25 µg/mL
- MIC ([6]; strain S. MSSA 232 (Table 7 No. 2), hydrate): 0.25 µg/mL
- MIC ([6]; strain S. MSSA 275 (Table 7 No. 10), hydrate): 0.25 µg/mL
- MIC ([6]; strain S. MSSA 520 (Table 7 No. 4), hydrate): 0.25 µg/mL
- MIC ([6]; strain S. MSSA 580 (Table 7 No. 5), hydrate): 0.25 µg/mL
- MIC [7]: 0.25 µg/mL
- Solubility compared with the anhydride ([8]; different solvents): sometimes more soluble than the anhydride
- Result ([8]; solvent 0.1N Hydrochloric acid): Dissolved
- Result ([8]; solvent 0.1N Sodium hydroxide): Insoluble
- Result ([8]; solvent Acetonitrile): Dissolved
- Result ([8]; solvent Ethanol): Dissolved
- Result ([8]; solvent Methanol): Dissolved
- Result ([8]; solvent Water, hydrate): Dissolved
